This data set is described as follows: gradient 5% acetonitrile 3 min, to 50% in 2 min, to 85% in 15 min, held 3 min, 100 µL/min. As to conditions: column: Zorbax Extend-C18 2.1 x 50 mm; eluents: water / acetonitrile, 0.1% formic acid. In outline: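 Retention time was recorded from adduct peaks, which were picked computationally and each inspected manually. Pure standards ran in mixtures of ~100 molecules on HPLC coupled to a quadrupole time-of-flight mass spectrometer, in positive and negative ionization mode, through a Zorbax Extend-C18 column (2.1 × 50 mm, 1.8 μm) at 100 μL/min. Eluents were water and acetonitrile, each with 0.1% formic acid.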
For `Cc1ccccc1-c1noc(Cn2c(=O)n(Cc3ccc4c(c3)OCO4)c(=O)c3sccc32)n1`, the RP-LC retention time was determined as 1110 s.

As for `CC1CCN(C(=O)c2cc(S(=O)(=O)N(C)CC(=O)N3CCN(c4ccccc4)CC3)c[nH]2)CC1`, the RP-LC retention time turned out to be 862 s.

The molecule `CCOc1cccc(C2CC(c3ccc(OC)c(OC)c3)=NC3(CCN(C(C)C)CC3)N2)c1O` (stereo not drawn) yielded an RP-LC retention time of 604 s.

For the molecule `Cc1cc(C)c(S(=O)(=O)NCc2c(-c3ccccc3)nc3sc(C)nn23)c(C)c1`, the RP-LC retention time was determined as 1020 s.

For the molecule `CCC1CCCCN1C(=O)c1cnc2nc(C)ccc2c1Nc1ccc(OC)cc1OC` (stereo not drawn), the RP-LC retention time was 667 s.

For the molecule `O=C(Nc1ccc(-c2nc(-c3ccc(F)cc3)no2)cc1)c1ccc(Br)o1`, the RP-LC retention time stood at 1200 s.

`CCc1noc(-c2cccnc2N2CCCN(Cc3ccc(Cl)cc3)CC2)n1` showed an RP-LC retention time of 709 s.

In the case of `O=C(C1CCN(S(=O)(=O)c2ccc(-c3noc(/C=C/c4cccs4)n3)cc2)CC1)N1CCCC1`, the RP-LC retention time was found to be 1050 s.

Turning to `CCC1CCCCN1C(=O)c1cnc2nc(C)ccc2c1Nc1ccc(C)cc1` (stereo not drawn), the RP-LC retention time is 674 s.

Regarding `COc1ccc(C(=O)NCc2ccc3c(c2)ncn3C(C)C)cc1F`, the RP-LC retention time was 632 s.

`Cc1ccc(-c2csc(NC(=O)c3ccc(Br)cc3)n2)c(C)c1` displayed an RP-LC retention time of 1270 s.

`CS(=O)(=O)N1CCC(C(=O)Nc2ccc(F)cc2F)Oc2ccc(Cl)cc21` (stereo not drawn): the RP-LC retention time was 944 s.

In turn, `CCc1nc2cc(-c3noc(-c4cc(F)ccc4F)n3)ccc2o1` registered an RP-LC retention time of 1180 s.

As to `Cc1ccccc1-c1noc(N2CCC(C(=O)N3CCOCC3)CC2)n1`, the RP-LC retention time stood at 796 s.

The molecule `CCc1nncn1C1CCN(S(=O)(=O)c2cccc(Cl)c2)CC1` registered an RP-LC retention time of 726 s.

`CC(C)NC(=O)C1CCc2sc(C(=O)N3CCCCC3)cc2C1` (stereo not drawn): the RP-LC retention time is 779 s.

For the molecule `CCOC(=O)C1CCN(C(=O)C2CCN(S(=O)(=O)c3ccc4c(c3)CCCC(=O)N4)CC2)CC1`, the RP-LC retention time is 713 s.

On to `CC(C)C(NC(=O)NCc1ccccc1)C(=O)N1CCc2ccccc21` (stereo not drawn), for which the RP-LC retention time was 896 s.

`O=C([C@@H]1C[C@H](F)CN1C(=O)Nc1cccc(Cl)c1)N1CCCCC1`: the RP-LC retention time is 747 s.

`Cc1ccc(CN2CC(n3cc(COc4ccc(F)cc4)nn3)C2)s1` gave an RP-LC retention time of 684 s.

For `CC1=C(c2ccc(F)cc2)S(=O)(=O)N=C1N1CCCN(C(=O)C2CC2)CC1`, the RP-LC retention time stood at 734 s.

As to `CCn1cnc(S(=O)(=O)N2CCCC(C(=O)Nc3cccc(Cl)c3)C2)c1` (stereo not drawn), the RP-LC retention time was found to be 797 s.

The molecule `COc1ccccc1NC(=O)N1CCN(C2=CC3=NC(C)CN3C=N2)CC1` (stereo not drawn) yielded an RP-LC retention time of 603 s.

The record behind these values is the METLIN SMRT retention time set (Domingo-Almenara et al. 2019).
